# In paper PMC12217109, “Development of novel benzamide class I selective lysine deacetylase inhibitors as potent anticancer agents” (Journal of Enzyme Inhibition and Medicinal Chemistry, 2025):
# Legend:
# HeLa nuclear KDACs = assay: Fluor-de-Lys HDAC fluorometric activity assay with HeLa nuclear extract; type: biochemical
# Experimental: Total zinc-dependent KDAC (classes I, II and IV) activity was measured using the Fluor-de-Lys^TM HDAC fluorometric activity assay kit (BioMol, Exeter, UK), as per manufacturers protocol. Briefly, HeLa nuclear extract, potential inhibitor (5 nM–20 μM) and assay buffer were incubated in a 96-well fluorometric plate at 37 °C for 15 min. Acetylated substrate (100 μM) was added and the mixture incubated at 37 °C for a further 20 min. The developer was added and the mixture incubated at 37 °C for a further 15 min. Fluorescence was measured using a microplate reader (λex = 360 nm, λem = 460 nm). Percentage KDAC activity and thus KDAC inhibition was determined by quantification of fluorescence obtained in the presence versus absence of the respective inhibitor.
# [1] = test system: MCF7 breast cancer cell line; assay: MTT cellular viability assay, MCF7; type: cell-based; settings: Homo sapiens, 96 h
# Experimental: The human A2780 ovarian (#93112519) and MCF-7 breast (#86012803) cancer cell lines were obtained from the European Cell Culture Collection (ECACC; Salisbury, UK). The human cardiac ventricular AC16 cell line (#SCC109) was obtained from Merck/Millipore (UK). The A2780 and MCF-7 cell lines were maintained in RPMI-1640 medium and the AC16 cell line was maintained in DMEM/F12 medium. Culture medium of all three cell lines was supplemented with 10% heat-inactivated foetal bovine serum (FBS) and 2 mM L-glutamine, with the cells maintained in a humidified 5% CO2 atmosphere at 37 °C. The media was changed every 72h and the cells passaged via trypsinisation (Trypsin EDTA, 0.25%) before reaching confluency.
# Cytotoxicity of each compound against the cell lines was assessed using the MTT assay. Cells were seeded in three replicates into 96-well plates at a density of 2 × 10^3/well for 24h to facilitate cell attachment. Media was replaced with that containing either test compound (0–10µM) for A2780 and MCF7 cell lines, single concentration (10 µM) test compound for AC16 cell line, or drug vehicle (dimethyl sulphoxide; DMSO) and the cells incubated for a further 96 h at 37 °C in a humidified 5% CO2 atmosphere. […] Chemosensitivity was thereafter assessed using a standard 3-[4, 5-dimethylthiazolyl]-2,5-diphenyltetrazolium bromide (MTT) assay, with the optical density determined at 540 nm as an indicator of cellular viability.
# 786-0 = assay: NCI-60 cytotoxicity screen; type: cell-based; settings: Homo sapiens, NCI-60, 48 h, renal
# Description: (§1) Compounds 3–7 were submitted to the US National Cancer Institute (NIH, Bethesda, Maryland) for screening against the NCI-60 panel of human cancer cell lines, as per standard protocol.
# A549 = assay: NCI-60 cytotoxicity screen; type: cell-based; settings: Homo sapiens, NCI-60, 48 h, NSCLC
# Description: as §1
# COLO205 = assay: NCI-60 cytotoxicity screen; type: cell-based; settings: Homo sapiens, COLO 205; NCI-60, 48 h, colon
# Description: as §1
# DU-145 = assay: NCI-60 cytotoxicity screen; type: cell-based; settings: Homo sapiens, NCI-60, 48 h, prostate
# Description: as §1
# EKVX = assay: NCI-60 cytotoxicity screen; type: cell-based; settings: Homo sapiens, NCI-60, 48 h, NSCLC
# Description: as §1
# H522 = assay: NCI-60 cytotoxicity screen; type: cell-based; settings: Homo sapiens, NCI-60, 48 h, NSCLC
# Description: as §1
# HCT116 = assay: NCI-60 cytotoxicity screen; type: cell-based; settings: Homo sapiens, HCT-116; NCI-60, 48 h, colon
# Description: as §1
# HCT15 = assay: NCI-60 cytotoxicity screen; type: cell-based; settings: Homo sapiens, HCT-15; NCI-60, 48 h, colon
# Description: as §1
# HL-60 = assay: NCI-60 cytotoxicity screen; type: cell-based; settings: Homo sapiens, NCI-60, 48 h, leukaemia
# Description: as §1
# HS 578 T = assay: NCI-60 cytotoxicity screen; type: cell-based; settings: Homo sapiens, NCI-60, 48 h, breast
# Description: as §1
# IGROV-1 = assay: NCI-60 cytotoxicity screen; type: cell-based; settings: Homo sapiens, NCI-60, 48 h, ovarian
# Description: as §1
# KM12 = assay: NCI-60 cytotoxicity screen; type: cell-based; settings: Homo sapiens, NCI-60, 48 h, colon
# Description: as §1
# LOX IMVI = assay: NCI-60 cytotoxicity screen; type: cell-based; settings: Homo sapiens, NCI-60, 48 h, melanoma
# Description: as §1
# MCF-7 = assay: NCI-60 cytotoxicity screen; type: cell-based; settings: Homo sapiens, MCF7; NCI-60, 48 h, breast
# Description: as §1
# MDA-MB-435 = assay: NCI-60 cytotoxicity screen; type: cell-based; settings: Homo sapiens, NCI-60, 48 h, melanoma
# Description: as §1
# OVCAR-3 = assay: NCI-60 cytotoxicity screen; type: cell-based; settings: Homo sapiens, NCI-60, 48 h, ovarian
# Description: as §1
# OVCAR-4 = assay: NCI-60 cytotoxicity screen; type: cell-based; settings: Homo sapiens, NCI-60, 48 h, ovarian
# Description: as §1
# RXF 393 = assay: NCI-60 cytotoxicity screen; type: cell-based; settings: Homo sapiens, NCI-60, 48 h, renal
# Description: as §1
# SF-295 = assay: NCI-60 cytotoxicity screen; type: cell-based; settings: Homo sapiens, NCI-60, 48 h, CNS
# Description: as §1
# SK-MEL-28 = assay: NCI-60 cytotoxicity screen; type: cell-based; settings: Homo sapiens, NCI-60, 48 h, melanoma
# Description: as §1
# SN12C = assay: NCI-60 cytotoxicity screen; type: cell-based; settings: Homo sapiens, NCI-60, 48 h, renal
# Description: as §1
# SNB-75 = assay: NCI-60 cytotoxicity screen; type: cell-based; settings: Homo sapiens, NCI-60, 48 h, CNS
# Description: as §1
# SW620 = assay: NCI-60 cytotoxicity screen; type: cell-based; settings: Homo sapiens, SW-620; NCI-60, 48 h, colon
# Description: as §1
# UACC-62 = assay: NCI-60 cytotoxicity screen; type: cell-based; settings: Homo sapiens, NCI-60, 48 h, melanoma
# Description: as §1
# H322M = assay: NCI-60 cytotoxicity screen; type: cell-based, human; settings: Homo sapiens, NCI-H322M; NCI-60, 48 h, NSCLC
# Description: as §1
# TK-10 = assay: NCI-60 cytotoxicity screen; type: cell-based, human; settings: Homo sapiens, TK-10; NCI-60, 48 h, renal
# Description: as §1
# UACC-257 = assay: NCI-60 cytotoxicity screen; type: cell-based, human; settings: Homo sapiens, UACC-257; NCI-60, 48 h, melanoma
# Description: as §1
# OVCAR-5 = assay: NCI-60 cytotoxicity screen; type: cell-based; settings: Homo sapiens, NCI-60, 48 h, ovarian
# T-47D = assay: NCI-60 cytotoxicity screen; type: cell-based, human; settings: Homo sapiens, T47D; NCI-60, 48 h, breast
smiles,measurement,setting,value
"C=C(CN1CCN(c2cccc(C(F)(F)F)n2)CC1)c1ccc(C(=O)Nc2ccccc2N)cc1 [Compound 7, N-(2-aminophenyl)-4–(3-(4–(6-(trifluoromethyl)pyridin-2-yl)piperazin-1-yl)prop-1-en-2-yl)benzamide]",IC50,"HeLa nuclear KDACs; HeLa nuclear extract, up to 20 µM, read-out: HDAC Inhibition IC50",> 20000 nM
same,IC20,"HeLa nuclear KDACs; concentration inhibiting HDAC activity by 20%, read-out: HDAC Inhibition IC20",800 ± 200 nM
same,IC50,[1],800 ± 300 nM
same,IC50,786-0,1970 nM
same,IC50,A549,3320 nM
same,IC50,COLO205,3330 nM
same,IC50,DU-145,1450 nM
same,IC50,EKVX,24300 nM
same,IC50,H522,1110 nM
same,IC50,HCT116,540 nM
same,IC50,HCT15,920 nM
same,IC50,HL-60,320 nM
same,IC50,HS 578 T,450 nM
same,IC50,IGROV-1,2010 nM
same,IC50,KM12,670 nM
same,IC50,LOX IMVI,1490 nM
same,IC50,MCF-7,350 nM
same,IC50,MDA-MB-435,270 nM
same,IC50,OVCAR-3,260 nM
same,IC50,OVCAR-4,8360 nM
same,IC50,RXF 393,670 nM
same,IC50,SF-295,390 nM
same,IC50,SK-MEL-28,2080 nM
same,IC50,SN12C,3790 nM
same,IC50,SNB-75,670 nM
same,IC50,SW620,530 nM
same,IC50,UACC-62,970 nM
same,IC50,H322M,> 100000 nM
same,IC50,TK-10,16400 nM
same,IC50,UACC-257,26500 nM
same,IC50,OVCAR-5,710 nM
same,IC50,T-47D,3010 nM
